Results published in US7741359B2, “Hydrogen sulfide derivatives of non-steroidal anti-inflammatory drugs” (Antibe Therapeutics Inc., priority 2006, dated 2010).
“Also recorded” adds a separate entry of the source.

Assays:
[1] = tested on: gastric prostaglandin E2 (PGE2) synthesis (COX-1 and/or COX-2); experiment: Gastric prostaglandin E2 (PGE2) synthesis in excised rat gastric tissue; format: in vivo; details: oral; doses equimolar to diclofenac 20 mg/kg; tissue taken 3 h after administration; FIG. 2
Protocol: Briefly, the tissue samples were minced with scissors for 30 min, then placed in 1 mL of sodium phosphate buffer (pH 7.4) and placed in a shaking water bath (37° C.) for 20 min.

COX-2 = molecular target: T1, COX-2 (Rattus norvegicus, UniProt P35355); experiment: Rat airpouch assay, exudate PGE2 after zymosan (inhibition of COX-2 in vivo); details: for COX-2 activity (exudate PGE2): hydrogen sulfide releasing moieties alone, dose not given
T1 construct: from tissue; host or cells: rat subcutaneous airpouch (in vivo, zymosan-induced inflammation)
T1 sequence (P35355 18-604): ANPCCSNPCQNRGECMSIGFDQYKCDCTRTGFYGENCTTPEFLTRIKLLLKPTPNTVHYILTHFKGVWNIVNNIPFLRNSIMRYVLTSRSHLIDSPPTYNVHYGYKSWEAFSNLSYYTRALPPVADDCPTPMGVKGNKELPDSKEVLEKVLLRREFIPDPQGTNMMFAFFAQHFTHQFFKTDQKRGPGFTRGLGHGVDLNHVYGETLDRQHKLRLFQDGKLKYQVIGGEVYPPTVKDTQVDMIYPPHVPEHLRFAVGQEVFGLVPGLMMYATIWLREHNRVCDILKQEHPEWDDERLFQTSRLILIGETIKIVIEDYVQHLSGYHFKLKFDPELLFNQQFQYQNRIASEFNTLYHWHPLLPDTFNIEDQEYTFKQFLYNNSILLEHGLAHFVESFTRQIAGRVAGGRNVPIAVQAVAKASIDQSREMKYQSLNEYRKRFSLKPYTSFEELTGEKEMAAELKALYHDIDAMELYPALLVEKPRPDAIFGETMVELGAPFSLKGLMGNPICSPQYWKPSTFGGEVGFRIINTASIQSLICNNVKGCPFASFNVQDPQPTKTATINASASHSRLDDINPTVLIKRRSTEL
Protocol: Briefly, a subcutaneous “pouch” is created by repeated injections of air over several days. Once established, inflammation in the pouch can be induced by injection of 1 mL of 1% zymosan. […] Another group of 5 rats was treated with the vehicle, but received an injection of 0.9% sterile saline into the pouch rather than zymosan. […]
Each group consisted of 5 rats.

[2] = Healing of acetic acid-induced gastric ulcers; format: in vivo, rat
Protocol: Gastric ulcers were induced via serosal application of acetic acid, as described by Elliott et al., A nitric oxide-releasing nonsteroidal anti-inflammatory drug accelerates gastric ulcer healing in rats. Gastroenterology 1995; 109: 524-530. […] After 4 days of such treatment, the rats were euthanized and the stomach was excised and photographed. The area (in mm^2) of the ulcer was determined planimetrically by an individual unaware of the treatments given to the rats. In a subgroup of 5 rats euthanized 3 days after induction of gastric ulcers (i.e., prior to initiation of drug treatment), the mean surface area of the ulcers was 24±2 mm^2.

COX-1 [3] = molecular target: T2, COX-1 (Rattus norvegicus, UniProt Q63921); experiment: Whole blood thromboxane B2 synthesis of treated rats (inhibition of COX-1); format: in vivo; details: for COX-1 activity (whole blood thromboxane synthesis): hydrogen sulfide releasing moieties alone, dose not given, FIG. 8
T2 construct: whole blood thromboxane synthesis, which occurs via COX-1; from tissue; host or cells: rat whole blood (ex vivo clotting after oral dosing)
T2 sequence (Q63921 27-602): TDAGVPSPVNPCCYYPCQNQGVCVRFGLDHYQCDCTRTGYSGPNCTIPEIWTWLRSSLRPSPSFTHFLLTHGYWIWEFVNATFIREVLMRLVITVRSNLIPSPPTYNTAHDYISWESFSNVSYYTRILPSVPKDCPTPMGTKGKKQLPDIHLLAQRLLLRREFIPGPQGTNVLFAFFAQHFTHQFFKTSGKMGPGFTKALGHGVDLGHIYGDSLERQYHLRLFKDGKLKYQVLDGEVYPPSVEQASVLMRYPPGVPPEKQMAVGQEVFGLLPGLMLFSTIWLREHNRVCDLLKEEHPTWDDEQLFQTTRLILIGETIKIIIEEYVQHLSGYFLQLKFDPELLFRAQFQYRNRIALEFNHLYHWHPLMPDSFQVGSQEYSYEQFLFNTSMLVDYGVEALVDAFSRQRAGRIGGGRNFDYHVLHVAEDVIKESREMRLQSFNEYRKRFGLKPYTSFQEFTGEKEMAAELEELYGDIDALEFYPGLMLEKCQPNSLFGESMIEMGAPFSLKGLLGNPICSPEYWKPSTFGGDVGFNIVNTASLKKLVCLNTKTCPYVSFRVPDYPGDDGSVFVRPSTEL
Protocol: Inhibition of COX-1 was also measured using the same rats. […] The samples were then centrifuged for 3 min at 9,000 g and the supernatant was frozen at −80° C. for subsequent measurement of thromboxane B2 concentrations using a specific ELISA.
Inhibition of COX-1 was also measured using the same rats, using the same method as described for FIG. 4. […]

[4] = tested on: leukocyte adherence to the vascular endothelium; experiment: Leukocyte adherence to the vascular endothelium, intravital microscopy of mesenteric venules; details: intragastric 30 μmol/kg; for Number of Adherent Leukocytes: mean ± SEM
Protocol: Briefly, post-capillary mesenteric venules in anesthetized rats are examined under a light microscope. […] All test compounds were prepared in a vehicle of 1% carboxymethylcellulose. Changes in leukocyte adherence within the venule were recorded with a video camera attached to the microscope, and quantification of the numbers of adherent leukocytes was performed in a blind manner through evaluation of the videotaped images. Each group consisted of 5 male, Wistar rats weighing 150-175 g. A leukocyte was considered “adherent” if it remained stationary for 30 seconds or more (results below are expressed as the mean ± SEM).

[5] = Incidence of gastric damage at the end of the leukocyte adherence experiment; details: intragastric 30 μmol/kg; for Percent Incidence of Gastric Damage: end of experiment
Protocol: Briefly, post-capillary mesenteric venules in anesthetized rats are examined under a light microscope. […] All test compounds were prepared in a vehicle of 1% carboxymethylcellulose. Changes in leukocyte adherence within the venule were recorded with a video camera attached to the microscope, and quantification of the numbers of adherent leukocytes was performed in a blind manner through evaluation of the videotaped images. Each group consisted of 5 male, Wistar rats weighing 150-175 g. A leukocyte was considered “adherent” if it remained stationary for 30 seconds or more (results below are expressed as the mean ± SEM). At the end of the experiment the stomach was opened and examined for the presence of gastric damage, under a dissecting microscope.

[6] = Gastric damage (gastric damage score) in rats after oral dosing; details: rats fasted 18 h; oral; doses equimolar to diclofenac 20 mg/kg; 3 h after administration; FIG. 1
[7] = Carrageenan hindpaw edema model; format: in vivo, rat; details: 30 min prior to carrageenan
Protocol: Male, Wistar rats weighing 175-200 g were given the test compounds orally 30 min prior to subplantar injection of 100 ul of 1% lambda carrageenan. Paw volume measured using an Ugo Basile hydroplethysmometer prior to carrageenan injection and at 1-h intervals thereafter for 5 h.

[8] = Systolic blood pressure in hypertensive (L-NAME) rats; details: 30 μmol/kg intraperitoneal bolus; recorded for 60 minutes; FIG. 14
[9] = Hematocrit before and after repeated administration; format: in vivo, rat; details: 50 μmol/kg at time 0, 12 and 24 hours; start versus 24 h after final dose; FIG. 6
Excerpt: Another group of rats received vehicle (1% carboxymethylcellulose).

[10] = Small intestinal injury after repeated administration; details: 50 μmol/kg at time 0, 12 and 24 hours; assessed 24 h after final dose; FIG. 5
COX-1 [11] = molecular target: T3, COX-1 (Homo sapiens, UniProt P23219); experiment: Human whole blood thromboxane B2 synthesis in vitro; format: cell-based; details: FIG. 12; for inhibition of COX-1 activity (thromboxane B2 synthesis by human blood): 0.1, 0.3, 1 or 3 μM, 45 min 37° C.
T3 construct: from tissue; host or cells: human whole blood from healthy volunteers
T3 sequence (P23219 24-599): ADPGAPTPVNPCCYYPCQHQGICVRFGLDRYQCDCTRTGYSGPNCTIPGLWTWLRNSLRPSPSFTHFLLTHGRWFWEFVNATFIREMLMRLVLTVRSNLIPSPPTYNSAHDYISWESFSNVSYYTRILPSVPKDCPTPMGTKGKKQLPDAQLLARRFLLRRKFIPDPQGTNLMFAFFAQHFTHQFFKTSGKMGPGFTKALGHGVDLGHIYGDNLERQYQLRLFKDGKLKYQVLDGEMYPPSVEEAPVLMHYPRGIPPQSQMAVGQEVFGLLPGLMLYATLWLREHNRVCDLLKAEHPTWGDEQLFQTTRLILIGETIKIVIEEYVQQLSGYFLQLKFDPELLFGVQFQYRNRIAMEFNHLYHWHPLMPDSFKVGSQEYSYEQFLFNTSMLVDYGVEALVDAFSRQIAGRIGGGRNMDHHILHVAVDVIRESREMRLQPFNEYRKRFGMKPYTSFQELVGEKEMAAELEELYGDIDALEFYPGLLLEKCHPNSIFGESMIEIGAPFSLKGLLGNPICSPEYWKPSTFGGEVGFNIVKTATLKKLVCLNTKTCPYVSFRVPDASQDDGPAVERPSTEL
Protocol: Aliquots (0.5 mL) of blood from healthy human volunteers were added to glass tubes containing 10 uL of methanol alone, or one of the test drugs prepared such that the final concentration would be 0.1, 0.3, 1 or 3 μM. The tubes were placed in water bath (37° C.) with gentle shaking for 45 min, after which they were centrifuged (1,000×g) for 10 minutes. The concentration of thromboxane B2 in each sample was then determined using a specific ELISA, as in the studies shown in FIG. 4.

Row | Compound | gastric PGE2 synthesis [1] | COX-2 activity (exudate PGE2) (COX-2) | COX-1 activity (whole blood thromboxane synthesis) (COX-1 [3]) | Number of Adherent Leukocytes [4] [per 100 μm vessel length] | Percent Incidence of Gastric Damage [5] [%] | change in systolic blood pressure [8] | hematocrit [9] | inhibition of COX-1 activity (thromboxane B2 synthesis by human blood) (COX-1 [11]) | other results
1 | NC(=S)c1ccc(O)cc1 [TBZ, 4-hydroxythiobenzamide, reference compound] | did not reduce gastric PGE2 synthesis when compared to vehicle | neither of the hydrogen sulfide releasing moieties (ADT-OH and TBZ) significantly affected COX-2 activity | neither of the hydrogen sulfide releasing moieties (ADT-OH and TBZ) significantly affected COX-1 activity |  |  |  |  |  | gastric ulcer healing (ulcer area) ([2]; hydrogen sulfide releasing moiety alone, dose not given): did not significantly affect the healing of gastric ulcers as compared to the vehicle-treated group
2 | O=C(Cc1ccccc1Nc1c(Cl)cccc1Cl)Oc1ccc(-c2cc(=S)ss2)cc1 [Compound II, [2-(2,6-dichloro-phenylamino)-phenyl]-acetic acid 4-(5-thioxo-5H-[1,2]dithiol-3-yl)-phenyl ester] | significantly reduced the amount of gastric PGE2 synthesis; also recorded: near-complete |  |  | 3.0 ± 0.5 | 0 | did not increase systolic blood pressure as compared to the vehicle-treated group; also recorded: significantly lower than that induced by diclofenac and naproxen, respectively | no significant effect on hematocrit |  | number of adherent leukocytes compared to the parent NSAID alone [4]: significantly reduced the number of adherent leukocytes per 100 μm vessel length; percent incidence of gastric damage compared to the parent NSAID alone [5]: significantly reduced the percent incidence of gastric damage when compared to diclofenac alone; gastric damage score [6]: no gastric damage was seen; also recorded: elicited significantly less gastric damage than diclofenac; paw edema (paw volume increase) ([7]; oral, dose equimolar to diclofenac at 3 mg/kg, compared with diclofenac, FIGS. 9, 10, 3 mg/kg): reduced paw edema to a greater extent; also recorded: comparable to the effect of diclofenac at a dose of 10 mg/kg; concentrations of PGE2 within the pouch (COX-2) (COX-2; oral 30 min before injection, diclofenac 3 mg/kg, Compound II 4.8 mg/kg, Compound XVII 4.1 mg/kg, 1% zymosan, FIG. 7): markedly reduced the concentrations of PGE2 within the pouch; extent of small intestinal damage, less than in rats treated with diclofenac [10]: > 90%; inhibition at 4.8 mg/kg (COX-1 [3]; rat, po): > 80%
3 | Oc1ccc(-c2cc(=S)ss2)cc1 [ADT-OH, 5-p-hydroxyphenyl-1,2-dithiole-3-thione, reference compound] | did not reduce gastric PGE2 synthesis when compared to vehicle | neither of the hydrogen sulfide releasing moieties (ADT-OH and TBZ) significantly affected COX-2 activity | neither of the hydrogen sulfide releasing moieties (ADT-OH and TBZ) significantly affected COX-1 activity |  |  |  |  |  | 
4 | COc1ccc2c(c1)c(CC(=O)Oc1ccc(C(N)=S)cc1)c(C)n2C(=O)c1ccc(Cl)cc1 [Compound XIX, [1-(4-Chloro-benzoyl)-5-methoxy-2-methyl-1-H-indol-3-yl]-acetic acid 4-thiocarbamoyl-phenyl ester] |  |  |  |  | 0 |  |  | concentration-dependent inhibition of COX-1 activity as compared to the vehicle-treated group; also recorded: significantly better at inhibiting thromboxane B2 synthesis than the ADT-OH equivalent, Compound IV | inhibition of COX-1 activity compared with indomethacin (COX-1 [11]; concentrations of 1 and 3 μM): significantly greater (*p<0.05) inhibition of COX-1 activity than that produced by indomethacin
5 | O=C(O)Cc1ccccc1Nc1c(Cl)cccc1Cl [Diclofenac, diclofenac, reference compound] |  |  |  |  |  | caused a substantial increase in systolic blood pressure | profound reduction of hematocrit |  | paw edema (paw volume increase) ([7]; oral 1, 3 or 10 mg/kg, FIG. 9): dose-dependently reduced paw edema; gastric ulcer healing (ulcer area) ([2]; 30 μmol/kg twice-daily orally for 4 days, starting 3 days after ulcer induction, FIG. 13): exhibited similar degrees of healing; small intestinal damage (erosions/ulcers) [10]: extensive erosions and ulcers in the small intestine
6 | COc1ccc2c(c1)c(CC(=O)Oc1ccc(-c3cc(=S)ss3)cc1)c(C)n2C(=O)c1ccc(Cl)cc1 [Compound IV, [1-(4-Chloro-benzoyl)-5-methoxy-2-methyl-1-H-indol-3-yl]-acetic acid 4-(5-thioxo-5-H-[1,2]dithiol-3-yl)-phenyl ester] |  |  |  | 3.6 ± 0.7 | 20 |  |  | concentration-dependent inhibition of COX-1 activity as compared to the vehicle-treated group | 
